Molecules are shown by their SMILES.

As a reminder, the mortality is the percentage killed.

The subject of the first data set is resistant green rice leafhoppers (R).
Experiment: not given
The conditions noted are these: ratio of the resistant strain to the susceptible strain (LD50); 1440 min. As for the experimental part: (1) A 20-mg portion of a given test compound was weighed out and dissolved in 10 ml of acetone. The resultant solution was diluted at proper times with acetone.
(2) With a micro-syringe, the acetone solution of the test compound was topically applied to the thoracic region of female green rice leafhoppers at a fixed dose of 0.2 μl per head.
(3) The female green rice leafhoppers thus treated were placed in a plastic cup prepared in advance (measuring 7 cm in diameter and 3.5 cm in depth and containing rice seeds) and kept at a constant temperature of 26±1° C. After 24 hours' standing, the dead insects were counted.
In the case of a mixed insecticide, the LD50 was shown as a total dosage.
For the compound `CCCNC(=O)Oc1cccc(C(C)(C)C)c1` [Compound 33, 3-tert-butylphenyl-N-n-propylcarbamate], the “Insecticidal Activity R/S (resistant ratio)” value is listed as 1.5.
For `CCCNC(=O)Oc1cccc(CC)c1` [Compound 31, 3-ethylphenyl-N-n-propylcarbamate], the “Insecticidal Activity R/S (resistant ratio)” value turned out to be 0.5.
Take `CNC(=O)Oc1cccc(C)c1` [Compound 24, 3-methylphenyl-N-methylcarbamate, reference compound]: the “Insecticidal Activity R/S (resistant ratio)” value is 9.9.
In the case of `CCNC(=O)Oc1ccc(C)c(C)c1` [Compound 36, 3,4-dimethylphenyl-N-ethylcarbamate], the “Insecticidal Activity R/S (resistant ratio)” value worked out at 3.3.
On to `C=CCNC(=O)Oc1cc(C)cc(C)c1` [Compound 44, 3,5-dimethylphenyl-N-allylcarbamate], for which the “Insecticidal Activity R/S (resistant ratio)” value is listed as 0.9.
`CNC(=O)Oc1cc(C)cc(C)c1` [Compound 40, 3,5-dimethylphenyl-N-methylcarbamate, reference compound]: the “Insecticidal Activity R/S (resistant ratio)” value is 5.3.
The same measure, in the same setting: the value for `CNC(=O)Oc1ccc(C)c(C)c1` [Compound 35, 3,4-dimethylphenyl-N-methylcarbamate, reference compound] was 4.7.
Turning to `CCNC(=O)Oc1ccccc1C(C)CC` (stereo not shown) [Compound 7, 2-sec-butylphenyl-N-ethylcarbamate], the “Insecticidal Activity R/S (resistant ratio)” value worked out at 2.6.
Still for that read-out and setting: the value for `CCNC(=O)Oc1cccc(C)c1` [Compound 25, 3-methylphenyl-N-ethylcarbamate] was 3.7.
With `CCCNC(=O)Oc1cccc(C(C)C)c1` [Compound 13, 3-isopropylphenyl-N-n-propylcarbamate], the “Insecticidal Activity R/S (resistant ratio)” value was determined as 1.4.

Another data set relates to green rice leafhoppers of the strain RN. The data set is described as follows: Test Example 3: dust spray test (20 mesh metal gauze cylinder). The format is in vivo, Nephotettix cincticeps. The conditions noted are these: 2% dust; 100 mg; 24 hr; read-out: Mortality (%) after 24 hr., 100 mg Spray (Table 7). As for the experimental part:
The insecticides in the form of dust were tested for insecticidal activity.
The test for insecticidal activity was performed by the following procedure. […] The dust of a test compound (pulverized by means of a shaking pulverizer made by Taira Kosakusho, Ltd.) was applied onto the tube contents at a prescribed rate by spraying from outside the metal gauze by means of a bell-jar duster. The dust of the test compound was prepared uniformly mixing 2 parts of the dust of the individual compound or 1 part each of the dusts of the mixture components (total 2 parts) and 98 parts of a carrier obtained by mixing talc and clay in equal volumes.
As to `CNC(=O)Oc1cccc(C)c1` [Compound 24, 3-methylphenyl-N-methylcarbamate, reference compound], the mortality at 100 mg/cylinder is 0%.
`CCNC(=O)Oc1ccc(C)c(C)c1` [Compound 36, 3,4-dimethylphenyl-N-ethylcarbamate]: the mortality at 100 mg/cylinder was determined as 55%.
As to `C=CCNC(=O)Oc1cc(C)cc(C)c1` [Compound 44, 3,5-dimethylphenyl-N-allylcarbamate], the mortality at 100 mg/cylinder turned out to be 60%.
On to `CNC(=O)Oc1cc(C)cc(C)c1` [Compound 40, 3,5-dimethylphenyl-N-methylcarbamate, reference compound], for which the mortality at 100 mg/cylinder was 5%.

The same data set, now with this note: 2% dust; 250 mg; 24 hr; read-out: Mortality (%) after 24 hr., 250 mg Spray (Table 7).
With `CNC(=O)Oc1cccc(C)c1` [Compound 24, 3-methylphenyl-N-methylcarbamate, reference compound], the mortality at 250 mg/cylinder was 20%.
Still for that read-out and setting: the value for `CCNC(=O)Oc1ccc(C)c(C)c1` [Compound 36, 3,4-dimethylphenyl-N-ethylcarbamate] was 80%; that for `C=CCNC(=O)Oc1cc(C)cc(C)c1` [Compound 44, 3,5-dimethylphenyl-N-allylcarbamate] was 80%.
On to `CNC(=O)Oc1cc(C)cc(C)c1` [Compound 40, 3,5-dimethylphenyl-N-methylcarbamate, reference compound], for which the mortality at 250 mg/cylinder was 15%.

The same data set, now with this note: 24 h, read-out: Mortality (%) after 24 hr., 100 mg Spray (Table 7).
`CNC(=O)Oc1ccc(C)c(C)c1` [Compound 35, 3,4-dimethylphenyl-N-methylcarbamate, reference compound]: the mortality at 100 mg/cylinder was found to be 0%.

The same data set, now with this note: 24 h, read-out: Mortality (%) after 24 hr., 250 mg Spray (Table 7).
For the compound `CNC(=O)Oc1ccc(C)c(C)c1` [Compound 35, 3,4-dimethylphenyl-N-methylcarbamate, reference compound], the mortality at 250 mg/cylinder amounted to 0%.

The same data set, now with this note: 24 h, read-out: Mortality (%) after 24 hr., Spray Volume 100 mg.
Consider `CNC(=O)Oc1ccc(C)c(C)c1` [Compound 35, 3,4-dimethylphenyl-N-methylcarbamate, reference compound], for which the mortality at 100 mg/cylinder is 0%.

The same data set, now with this note: 24 h, read-out: Mortality (%) after 24 hr., Spray Volume 250 mg.
Turning to `CNC(=O)Oc1ccc(C)c(C)c1` [Compound 35, 3,4-dimethylphenyl-N-methylcarbamate, reference compound], the mortality at 250 mg/cylinder worked out at 0%.

Staying with this data set, now noted: Table 8; dust 100 mg; 24 hr; read-out: Mortality (%) after 24 hr., Spray Volume 100 mg.
As to `CNC(=O)Oc1cccc(C)c1` [Compound 24, 3-methylphenyl-N-methylcarbamate, reference compound], the mortality at 100 mg/cylinder is 0%.
In the case of `CNC(=O)Oc1cc(C)cc(C)c1` [Compound 40, 3,5-dimethylphenyl-N-methylcarbamate, reference compound], the mortality at 100 mg/cylinder was found to be 5%.

The data set is the same for the next values; noted with them: Table 8; dust 250 mg; 24 hr; read-out: Mortality (%) after 24 hr., Spray Volume 250 mg.
With `CNC(=O)Oc1cccc(C)c1` [Compound 24, 3-methylphenyl-N-methylcarbamate, reference compound], the mortality at 250 mg/cylinder was determined as 20%.
`CNC(=O)Oc1cc(C)cc(C)c1` [Compound 40, 3,5-dimethylphenyl-N-methylcarbamate, reference compound]: the mortality at 250 mg/cylinder was determined as 15%.

Still in this data set, the particulars now being: dust; compound alone; RN strain.
For the compound `CNC(=O)Oc1cccc(C)c1` [Compound 24, 3-methylphenyl-N-methylcarbamate, reference compound], the “Effect of individual compound (RN), death ratio (%) (Table 9)” value came to 0%.
On the same count and under the same terms, the value for `CNC(=O)Oc1cc(C)cc(C)c1` [Compound 40, 3,5-dimethylphenyl-N-methylcarbamate, reference compound] was 0%.

The record behind these values is patent US4226883A, “Carbamate derivatives and method for manufacture thereof” (priority 1974, dated 1980).
